{"source": "patent US20260137642A1", "about": "(CANCER PREVENTION PHARMACEUTICALS, INC., priority 2021, published 2026)", "origin": "cited, not measured here", "key": {"[1]": {"details": "in vivo; cited from earlier work"}, "[2]": {"details": "phase II study; cited from earlier work"}, "[3]": {"details": "cited from earlier work"}, "[4]": {"details": "cited from earlier work", "remark": "listed apart in the source"}}}
{"smiles": "Cc1ccc(-c2cc(C(F)(F)F)nn2-c2ccc(S(N)(=O)=O)cc2)cc1", "note": "[Celecoxib, 4-[5-(4-Methylphenyl)-3-(trifluoromethyl)pyrazol-1-yl]benzenesulfonamide]", "values": [{"measurement": "Increase in rates of heart and blood vessel disease", "setting": "[1]", "value": 30, "unit": "%"}, {"measurement": "Risk of gastrointestinal side effects", "setting": "[1]", "value": "greater than 80%"}]}
{"smiles": "CCNCCCNCCCNCCCNCC", "note": "[DENSPM]", "values": [{"measurement": "Tolerability", "setting": "[2]", "value": "well-tolerated"}]}
{"smiles": "CC1=C(CC(=O)O)c2cc(F)ccc2/C1=C\\c1ccc([S+](C)[O-])cc1", "note": "(centres unmarked) [Sulindac, (Z)-5-fluoro-2-methyl-1-((4-(methylsulfinyl)phenyl)methylene)-1H-indene-3-acetic acid]", "values": [{"measurement": "Fraction of the drug absorbed", "setting": "[3]; after oral administration", "value": "about 90%"}, {"measurement": "Time to peak plasma levels", "setting": "[3]; fasting patients", "value": "about 2 hours"}, {"measurement": "Patients with mild gastrointestinal effects", "setting": "[4]; abdominal pain and nausea most frequent", "value": "~20", "unit": "%"}, {"measurement": "Patients with skin rash and pruritus", "setting": "[4]; human, in vivo", "value": 5, "unit": "%"}]}
{"smiles": "CSc1ccc(/C=C2/C(C)=C(CC(=O)O)c3cc(F)ccc32)cc1", "note": "[sulfide metabolite]", "values": [{"measurement": "Mean half-life", "setting": "[3]; in vivo", "value": 16.4, "unit": "h"}]}
